# Test results published in ChEMBL document CHEMBL4118122, “Identification and biological evaluation of thiazole-based inverse agonists of RORγt” (Bioorg Med Chem Lett, 2018).
# Experiments:
# [1] = target: Serine/threonine-protein kinase PLK3 (Homo sapiens) (UniProt Q9H4B4); test: Inhibition of GST-tagged human PLK3 catalytic domain expressed in baculovirus expression system at 10 uM in presence of ATP relative to control
# [2] = target: 5-hydroxytryptamine receptor 1A (Homo sapiens) (UniProt P08908); test: Displacement of [3H]8-OH-DPAT from recombinant human 5-HT1A receptor at 1 uM after 60 mins by scintillation counting analysis relative to control
# [3] = target: Adrenergic receptor alpha-1 (Rattus norvegicus) (UniProt P15823+P23944+P43140); test: Displacement of [3H]-prazosin from rat alpha1 adrenoceptor at 10 uM after 60 mins by scintillation counting analysis relative to control; assay type: protein assay
# [4] = target: Vasoactive intestinal polypeptide receptor 1 (Homo sapiens, UniProt P32241); test: Displacement of [125I]VIP from human recombinant VPAC1 receptor after 60 mins by scintillation counting analysis
# [5] = target: Galanin receptor type 2 (Homo sapiens) (UniProt O43603); test: Displacement of [125I]-endothelin-1 from human recombinant GAL2 receptor at 10 uM after 120 mins by scintillation counting analysis relative to control
# [6] = target: 5-hydroxytryptamine receptor 6 (Homo sapiens, UniProt P50406); test: Displacement of [3H]LSD from human recombinant 5-HT6 receptor at 1 uM after 120 mins by scintillation counting analysis relative to control
# [7] = target: Serine/threonine-protein kinase PLK1 (Homo sapiens) (UniProt P53350); test: Inhibition of full length recombinant His-tagged human PLK1 expressed in baculovirus expression system at 10 uM in presence of ATP relative to control
# [8] = target: NT-3 growth factor receptor (Homo sapiens) (UniProt Q16288); test: Inhibition of recombinant full length His-tagged human NTRK3 (510 to 825 residues) cytoplasmic domain expressed in baculovirus expression system at 10 uM in presence of ATP relative to control
# [9] = target: Casein kinase I isoform epsilon (Homo sapiens) (UniProt P49674); test: Inhibition of CK1epsilon (unknown origin) at 10 uM in presence of ATP relative to control
# [10] = target: Sodium-dependent dopamine transporter (Homo sapiens) (UniProt Q01959); test: Displacement of [3H][…] from recombinant human dopamine transporter at 1 uM after 120 mins by scintillation counting analysis relative to control
# D(1A) dopamine receptor = D(1A) dopamine receptor (Homo sapiens, UniProt P21728); test: Displacement of [3H]-SCH 23390 from human recombinant dopamine D1 receptor after 60 mins by scintillation counting analysis
# Rattus norvegicus [11] = species: Rattus norvegicus; test: Displacement of [3H]batrachotoxinin from rat brain voltage gated sodium ion channel site 2 at 10 uM after 60 mins by scintillation counting analysis relative to control
# [12] = target: Cyclin-dependent kinase 5/CDK5 activator 1 (Homo sapiens) (UniProt Q00535+Q15078); test: Inhibition of recombinant full length His-tagged human CDK5/p35 expressed in baculovirus expression system at 10 uM in presence of ATP relative to control
# [13] = target: Kappa-type opioid receptor (Homo sapiens, UniProt P41145); test: Displacement of [3H]U69593 from human kappa receptor at 10 uM after 60 mins by scintillation counting analysis relative to control
# [14] = target: Somatostatin receptor (Mus musculus) (UniProt P30935+O08858+P30875+P30873+P49660); test: Displacement of [125I]Tyr11-somatostatin-14 from mouse SST receptor at 10 uM after 60 mins by scintillation counting analysis relative to control; assay type: protein assay
# [15] = target: Small conductance calcium-activated potassium channel (Rattus norvegicus, UniProt P70604+P70606+P70605); test: Displacement of [125I]apamin from rat brain SkCa channel after 60 mins by scintillation counting analysis
# [16] = target: Substance-K receptor (Homo sapiens) (UniProt P21452); test: Displacement of [125I]NKA from human recombinant NK2 receptor at 1 uM after 60 mins by scintillation counting analysis relative to control
# Cytochrome P450 2D6 = Cytochrome P450 2D6 (Homo sapiens, UniProt P10635); test: Inhibition of CYP2D6 (unknown origin); assay type: ADME
# [17] = target: Beta-1 adrenergic receptor (Homo sapiens, UniProt P08588); test: Displacement of [3H](-)CGP 12177 from human beta1 adrenoceptor at 10 uM after 60 mins by scintillation counting analysis relative to control
# [18] = target: 5-hydroxytryptamine receptor 1B (Rattus norvegicus) (UniProt P28564); test: Displacement of [125I]-CYP from rat brain 5-HT1B receptor at 10 uM after 120 mins by scintillation counting analysis relative to control
# Cytochrome P450 3A4 = Cytochrome P450 3A4 (Homo sapiens, UniProt P08684); test: Inhibition of CYP3A4 (unknown origin); assay type: ADME
# [19] = target: Neuromedin-K receptor (Homo sapiens) (UniProt P29371); test: Displacement of [3H]SR 142801 from human recombinant NK3 receptor at 10 uM after 120 mins by scintillation counting analysis relative to control
# Histamine H2 receptor = Histamine H2 receptor (Homo sapiens, UniProt P25021); test: Displacement of [125I]APT from human recombinant histamine H2 receptor at 10 uM after 120 mins by scintillation counting analysis relative to control
# [20] = Displacement of [3H]batrachotoxinin from rat brain voltage gated sodium ion channel site 2 after 60 mins by scintillation counting analysis
# [21] = target: Small conductance calcium-activated potassium channel (Rattus norvegicus) (UniProt P70604+P70606+P70605); test: Displacement of [125I]apamin from rat brain SkCa channel at 10 uM after 60 mins by scintillation counting analysis relative to control
# Rattus norvegicus [22] = species: Rattus norvegicus; test: Displacement of [3H]batrachotoxinin from rat brain voltage gated sodium ion channel site 2 at 1 uM after 60 mins by scintillation counting analysis relative to control
# [23] = target: Substance-K receptor (Homo sapiens) (UniProt P21452); test: Displacement of [125I]NKA from human recombinant NK2 receptor at 10 uM after 60 mins by scintillation counting analysis relative to control
# [24] = target: Ribosomal protein S6 kinase alpha-2 (Homo sapiens) (UniProt Q15349); test: Inhibition of recombinant full length GST-tagged human RSK3 expressed in insect cells at 10 uM in presence of ATP relative to control
# [25] = target: Adenosine receptor A3 (Homo sapiens) (UniProt P0DMS8); test: Displacement of [125I]AB-MECA from human recombinant adenosine A3 receptor at 1 uM after 120 mins by scintillation counting analysis relative to control
# [26] = Displacement of [125I]alpha-dendrotoxin from rat brain voltage-gated K channel after 60 mins by scintillation counting analysis
# [27] = target: 5-hydroxytryptamine receptor 7 (Homo sapiens, UniProt P34969); test: Displacement of [3H]LSD from human recombinant 5-HT7 receptor at 1 uM after 120 mins by scintillation counting analysis relative to control
# [28] = target: Calcium/calmodulin-dependent protein kinase type 1D (Homo sapiens) (UniProt Q8IU85); test: Inhibition of CaMK1delta (unknown origin) at 10 uM in presence of ATP relative to control
# Calcium/calmodulin-dependent protein kinase type 1D (Homo sapiens), sequence (Q8IU85 whole entry, looked up): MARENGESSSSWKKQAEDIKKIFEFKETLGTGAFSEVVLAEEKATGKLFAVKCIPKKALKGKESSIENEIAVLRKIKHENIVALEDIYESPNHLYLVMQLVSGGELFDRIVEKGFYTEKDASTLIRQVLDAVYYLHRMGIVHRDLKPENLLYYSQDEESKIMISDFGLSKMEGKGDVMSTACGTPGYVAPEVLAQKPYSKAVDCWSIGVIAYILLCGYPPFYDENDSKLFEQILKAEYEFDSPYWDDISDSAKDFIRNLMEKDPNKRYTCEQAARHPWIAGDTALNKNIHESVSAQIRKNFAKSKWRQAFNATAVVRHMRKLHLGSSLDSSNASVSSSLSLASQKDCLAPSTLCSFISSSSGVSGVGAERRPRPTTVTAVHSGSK
# Substance-K receptor (Homo sapiens), sequence (P21452 whole entry): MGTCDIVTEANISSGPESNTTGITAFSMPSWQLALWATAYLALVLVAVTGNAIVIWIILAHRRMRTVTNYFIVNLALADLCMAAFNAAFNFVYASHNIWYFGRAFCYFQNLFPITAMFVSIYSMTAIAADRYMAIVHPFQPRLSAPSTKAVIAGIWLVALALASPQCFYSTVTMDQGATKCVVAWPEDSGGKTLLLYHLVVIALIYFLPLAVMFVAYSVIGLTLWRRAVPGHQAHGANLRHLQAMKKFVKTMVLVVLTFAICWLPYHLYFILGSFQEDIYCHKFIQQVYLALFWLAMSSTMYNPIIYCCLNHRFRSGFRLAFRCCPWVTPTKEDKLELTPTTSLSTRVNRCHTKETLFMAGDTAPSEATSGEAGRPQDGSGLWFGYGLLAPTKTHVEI
# Kappa-type opioid receptor, sequence (P41145 whole entry): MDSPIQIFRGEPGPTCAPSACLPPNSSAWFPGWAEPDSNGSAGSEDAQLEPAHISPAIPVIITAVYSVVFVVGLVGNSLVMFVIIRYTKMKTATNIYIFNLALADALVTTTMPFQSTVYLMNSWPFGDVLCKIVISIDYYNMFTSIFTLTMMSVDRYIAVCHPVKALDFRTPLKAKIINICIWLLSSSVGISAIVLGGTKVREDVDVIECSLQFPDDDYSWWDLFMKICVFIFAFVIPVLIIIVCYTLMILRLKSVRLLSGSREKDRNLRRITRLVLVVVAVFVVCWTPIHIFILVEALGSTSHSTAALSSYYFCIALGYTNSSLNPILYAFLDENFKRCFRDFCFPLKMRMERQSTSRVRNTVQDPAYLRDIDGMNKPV
# Cytochrome P450 3A4, sequence (P08684 whole entry): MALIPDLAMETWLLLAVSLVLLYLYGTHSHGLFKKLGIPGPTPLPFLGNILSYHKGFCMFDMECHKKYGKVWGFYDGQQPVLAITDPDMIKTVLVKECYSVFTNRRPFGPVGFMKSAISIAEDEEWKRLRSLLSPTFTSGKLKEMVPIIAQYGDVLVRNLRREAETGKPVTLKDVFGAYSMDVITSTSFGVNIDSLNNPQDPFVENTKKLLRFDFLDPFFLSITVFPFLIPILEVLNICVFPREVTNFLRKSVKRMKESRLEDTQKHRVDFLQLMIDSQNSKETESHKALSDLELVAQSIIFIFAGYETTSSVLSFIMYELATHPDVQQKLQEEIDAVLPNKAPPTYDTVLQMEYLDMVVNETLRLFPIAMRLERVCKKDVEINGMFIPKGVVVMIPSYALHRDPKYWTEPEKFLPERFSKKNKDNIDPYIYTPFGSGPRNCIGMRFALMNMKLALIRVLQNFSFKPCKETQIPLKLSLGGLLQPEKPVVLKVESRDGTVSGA
# Cytochrome P450 2D6, sequence (P10635 whole entry): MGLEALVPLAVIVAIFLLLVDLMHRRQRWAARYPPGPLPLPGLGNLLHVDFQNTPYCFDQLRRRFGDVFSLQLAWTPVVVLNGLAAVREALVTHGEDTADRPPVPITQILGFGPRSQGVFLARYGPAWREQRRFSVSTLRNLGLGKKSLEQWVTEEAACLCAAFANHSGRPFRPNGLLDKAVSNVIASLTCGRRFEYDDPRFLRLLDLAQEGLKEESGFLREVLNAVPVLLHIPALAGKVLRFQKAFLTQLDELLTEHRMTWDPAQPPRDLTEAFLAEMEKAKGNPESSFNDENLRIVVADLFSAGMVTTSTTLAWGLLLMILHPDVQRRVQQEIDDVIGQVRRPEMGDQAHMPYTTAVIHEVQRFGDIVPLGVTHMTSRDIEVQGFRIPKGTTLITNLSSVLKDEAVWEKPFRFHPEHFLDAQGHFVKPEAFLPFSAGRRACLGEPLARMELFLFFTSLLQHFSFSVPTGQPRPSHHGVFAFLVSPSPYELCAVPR
# Cyclin-dependent kinase 5/CDK5 activator 1 (Homo sapiens), sequence (Q00535 whole entry): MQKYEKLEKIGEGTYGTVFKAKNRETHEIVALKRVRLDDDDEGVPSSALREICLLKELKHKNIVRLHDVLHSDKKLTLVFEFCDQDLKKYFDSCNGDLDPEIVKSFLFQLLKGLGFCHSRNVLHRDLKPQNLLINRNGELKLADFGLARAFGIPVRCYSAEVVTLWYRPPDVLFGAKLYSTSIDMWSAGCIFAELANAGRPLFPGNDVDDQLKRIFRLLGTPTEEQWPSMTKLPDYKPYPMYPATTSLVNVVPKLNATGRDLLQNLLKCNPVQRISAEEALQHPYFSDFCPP
# Cyclin-dependent kinase 5/CDK5 activator 1 (Homo sapiens), sequence (Q15078 99-307 partner limits assumed): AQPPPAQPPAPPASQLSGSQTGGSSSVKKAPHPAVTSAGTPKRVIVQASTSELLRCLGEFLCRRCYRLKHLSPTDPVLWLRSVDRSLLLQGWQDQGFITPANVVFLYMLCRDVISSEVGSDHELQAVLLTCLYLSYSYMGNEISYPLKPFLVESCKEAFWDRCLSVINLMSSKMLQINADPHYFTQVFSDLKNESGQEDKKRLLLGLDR
# 5-hydroxytryptamine receptor 1A (Homo sapiens), sequence (P08908 whole entry): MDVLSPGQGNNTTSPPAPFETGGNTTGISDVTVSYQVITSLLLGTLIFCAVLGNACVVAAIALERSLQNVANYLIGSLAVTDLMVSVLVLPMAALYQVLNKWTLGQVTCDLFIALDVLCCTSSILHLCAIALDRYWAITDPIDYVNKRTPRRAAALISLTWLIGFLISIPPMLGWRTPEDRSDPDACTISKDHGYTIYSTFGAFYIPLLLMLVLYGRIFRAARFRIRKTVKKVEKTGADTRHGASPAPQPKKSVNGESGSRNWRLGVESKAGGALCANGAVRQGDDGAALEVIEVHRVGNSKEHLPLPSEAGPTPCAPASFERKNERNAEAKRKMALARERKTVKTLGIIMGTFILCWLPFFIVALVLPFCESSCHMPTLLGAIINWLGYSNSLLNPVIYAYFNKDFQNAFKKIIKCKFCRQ
# Serine/threonine-protein kinase PLK1 (Homo sapiens), sequence (P53350 whole entry, the tested form may be a part): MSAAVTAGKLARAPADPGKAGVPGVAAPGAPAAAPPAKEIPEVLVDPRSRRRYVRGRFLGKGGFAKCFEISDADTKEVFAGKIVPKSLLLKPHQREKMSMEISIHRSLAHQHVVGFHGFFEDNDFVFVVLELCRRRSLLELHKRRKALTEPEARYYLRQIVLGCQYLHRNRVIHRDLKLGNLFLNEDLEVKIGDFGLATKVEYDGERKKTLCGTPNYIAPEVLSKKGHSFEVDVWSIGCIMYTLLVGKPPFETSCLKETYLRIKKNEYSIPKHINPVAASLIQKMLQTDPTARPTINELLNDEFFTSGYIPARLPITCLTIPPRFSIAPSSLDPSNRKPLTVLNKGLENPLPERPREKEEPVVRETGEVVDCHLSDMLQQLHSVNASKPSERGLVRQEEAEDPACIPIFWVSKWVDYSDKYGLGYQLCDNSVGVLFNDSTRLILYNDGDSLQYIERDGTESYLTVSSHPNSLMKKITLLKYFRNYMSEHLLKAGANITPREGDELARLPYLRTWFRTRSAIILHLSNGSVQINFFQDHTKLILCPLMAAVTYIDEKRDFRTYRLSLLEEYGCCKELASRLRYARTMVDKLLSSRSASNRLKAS
# Beta-1 adrenergic receptor, sequence (P08588 whole entry, looked up): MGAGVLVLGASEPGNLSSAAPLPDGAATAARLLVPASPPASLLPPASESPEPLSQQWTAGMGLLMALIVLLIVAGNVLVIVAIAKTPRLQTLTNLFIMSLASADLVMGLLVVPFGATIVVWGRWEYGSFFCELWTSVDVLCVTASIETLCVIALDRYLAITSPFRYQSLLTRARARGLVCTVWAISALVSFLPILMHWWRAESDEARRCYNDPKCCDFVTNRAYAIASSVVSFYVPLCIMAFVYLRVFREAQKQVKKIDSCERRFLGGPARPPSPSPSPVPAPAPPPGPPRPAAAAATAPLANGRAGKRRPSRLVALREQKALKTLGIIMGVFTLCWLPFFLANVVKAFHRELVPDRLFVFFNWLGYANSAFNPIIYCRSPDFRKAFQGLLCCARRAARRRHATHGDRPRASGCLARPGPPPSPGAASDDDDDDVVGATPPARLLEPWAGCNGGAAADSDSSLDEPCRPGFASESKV
# Galanin receptor type 2 (Homo sapiens), sequence (O43603 whole entry): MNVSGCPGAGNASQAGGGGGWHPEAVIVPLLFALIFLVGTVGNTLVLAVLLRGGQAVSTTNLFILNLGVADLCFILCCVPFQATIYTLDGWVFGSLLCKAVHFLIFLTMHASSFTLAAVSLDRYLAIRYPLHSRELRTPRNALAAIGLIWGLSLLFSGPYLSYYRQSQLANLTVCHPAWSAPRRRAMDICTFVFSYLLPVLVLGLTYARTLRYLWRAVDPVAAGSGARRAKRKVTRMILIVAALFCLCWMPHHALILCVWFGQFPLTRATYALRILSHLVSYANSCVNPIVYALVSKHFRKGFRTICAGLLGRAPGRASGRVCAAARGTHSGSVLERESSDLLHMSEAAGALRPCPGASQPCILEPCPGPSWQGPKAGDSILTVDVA
# 5-hydroxytryptamine receptor 1B (Rattus norvegicus), sequence (P28564 whole entry): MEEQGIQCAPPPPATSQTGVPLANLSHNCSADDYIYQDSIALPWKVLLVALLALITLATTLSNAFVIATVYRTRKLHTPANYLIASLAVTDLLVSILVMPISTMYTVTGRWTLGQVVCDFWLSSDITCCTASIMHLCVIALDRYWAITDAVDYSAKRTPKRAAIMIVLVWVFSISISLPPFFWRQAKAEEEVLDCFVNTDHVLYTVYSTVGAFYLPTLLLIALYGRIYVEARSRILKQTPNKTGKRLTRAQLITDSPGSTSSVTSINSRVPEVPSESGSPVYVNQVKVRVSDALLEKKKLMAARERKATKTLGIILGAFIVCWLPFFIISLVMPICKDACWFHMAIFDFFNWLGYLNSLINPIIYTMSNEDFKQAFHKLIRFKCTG
smiles,measurement,setting,value
CC(C)(C)NS(=O)(=O)c1ccc(-c2sc(C(=O)N[C@H]3C[C@H](C(=O)O)C3)nc2CC2CCCCC2)c2ccccc12,inhibition,[1],-5%
same,inhibition,[2],< 10%
same,inhibition,[3],< 10%
same,IC50,[4],0.47 nM
same,inhibition,[5],< 10%
same,inhibition,[6],< 10%
same,inhibition,[7],-6%
same,inhibition,[8],-10%
same,inhibition,[9],4%
same,inhibition,[10],18%
same,IC50,D(1A) dopamine receptor,0.21 nM
same,inhibition,Rattus norvegicus [11],11%
same,inhibition,[12],-4%
same,inhibition,[13],< 10%
same,inhibition,[14],< 10%
same,IC50,[15],0.012 nM
same,inhibition,[16],< 10%
same,INH,Cytochrome P450 2D6,> 10 µM
same,inhibition,[17],11%
same,inhibition,[18],< 10%
same,INH,Cytochrome P450 3A4,> 10 µM
same,inhibition,[19],32%
same,inhibition,Histamine H2 receptor,< 10%
same,IC50,[20],6420 nM
same,inhibition,[21],< 10%
same,inhibition,Rattus norvegicus [22],< 10%
same,inhibition,[23],< 10%
same,inhibition,[24],-4%
same,inhibition,[25],24%
same,IC50,[26],0.22 nM
same,inhibition,[27],< 10%
same,inhibition,[28],11%
